According to patent US20240390464A1, “Treatment of Adults With Overweight or Obesity With or Without Weight-Related Comorbidities” (Carmot Therapeutics Inc., priority 2023, published 2024):
Read-outs that look alike come from different tables or passages of the source. Numbered stars: 1 amine (or outer) side, 2 acyl side, 3 side chain; on linkers, the order of the positions; unused ones are H or OH. Square brackets hold non-standard residues; d marks the D form. Side chains are listed from the residue outwards. Peptide text beside a SMILES is read from it. * marks the point of attachment. Isobutyryl(2-(3-CN-5-F-Ph)) = CC(C)(C(=O)*)c1cc(F)cc(C#N)c1; C20 diacid = O=C(O)CCCCCCCCCCCCCCCCCCC(=O)*; γGlu = O=C(O)[C@H](CCC(=O)[*:2])N[*:1]; AEEA = NCCOCCOCC(=O)O; Aib = CC(C)(N)C(=O)O; βAla = NCCC(=O)O

Legend:
[1] = chronic toxicology, repeat dosing 26 weeks; type: in vivo; conditions: rats
Text: (§1) Thus, CT-388 can be a potent drug that induces significant weight loss and helps achieve optimal glycemic control, with acceptable tolerability, in overweight or obese adults with or without T2DM or other weight-related comorbidities. CT-388 can potentially be used as a non-invasive alternative to bariatric surgery for weight management.

[2] = chronic toxicology, repeat dosing 39 weeks; type: in vivo; conditions: monkeys
Text: as §1

[3] = Phase 1 SAD Cohorts 1-5: pharmacokinetics; conditions: human, in vivo; for Vd/F: read-out: Vz/F
Protocol: The secondary objectives are: • To evaluate the pharmacokinetics of single-ascending doses of CT-388 in otherwise healthy overweight and obese adult participants; and • To evaluate the pharmacodynamic (PD) effect of a single dose of CT-388 on body weight and glucose homeostasis in both the fasted state and in the setting of a mixed meal tolerance test (MMTT) challenge in otherwise healthy overweight and obese adult participants.
• Cohort 1: One dose containing 0.5 mg of CT-388 or matched placebo administered subcutaneously in the abdomen • Cohort 2: One dose containing 2.0 mg of CT-388 or matched placebo administered subcutaneously in the abdomen • Cohort 3: One dose containing 5.0 mg of CT-388 or matched placebo administered subcutaneously in the abdomen • Cohort 4: One dose containing 7.5 mg of CT-388 or matched placebo administered subcutaneously in the abdomen • Cohort 5: One dose containing 6.0 mg of CT-388 or matched placebo administered subcutaneously in the abdomen
Time-concentration profiles following a single dose SC administration of CT-388 to participants in Cohort 1 (0.5 mg), Cohort 2 (2 mg), Cohort 3 (5 mg), Cohort 4 (7.5 mg) and Cohort 5 (6 mg) are shown in Table 8 below.

[4] = Cohort 1, single SC dose 0.5 mg, mean ± standard deviation
[5] = Cohort 2, single SC dose 2 mg, mean ± standard deviation
[6] = Cohort 3, single SC dose 5 mg, mean ± standard deviation
[7] = Cohort 4, single SC dose 7.5 mg, mean ± standard deviation
[8] = Cohort 5, single SC dose 6 mg, mean ± standard deviation

Question: Which results are given for `CC[C@H](C)[C@H](NC(=O)[C@H](CC(C)C)NC(=O)[C@H](Cc1c[nH]c2ccccc12)NC(=O)[C@H](CCC(N)=O)NC(=O)[C@@H](NC(=O)[C@H](Cc1ccccc1)NC(=O)[C@H](C)NC(=O)[C@H](CCCCNC(=O)COCCOCCNC(=O)COCCOCCNC(=O)CC[C@H](NC(=O)CCCCCCCCCCCCCCCCCCC(=O)O)C(=O)O)NC(=O)[C@H](CCC(N)=O)NC(=O)[C@H](C)NC(=O)[C@@H](NC(=O)[C@H](CCCCN)NC(=O)[C@H](CC(=O)O)NC(=O)[C@H](CC(C)C)NC(=O)C(C)(C)NC(=O)[C@@H](NC(=O)[C@H](CO)NC(=O)[C@H](Cc1ccc(O)cc1)NC(=O)[C@H](CC(=O)O)NC(=O)[C@H](CO)NC(=O)[C@@H](NC(=O)[C@H](Cc1ccccc1)NC(=O)[C@@H](NC(=O)CNC(=O)[C@H](CCC(=O)O)NC(=O)CCNC(=O)C(C)(C)c1cc(F)cc(C#N)c1)[C@@H](C)O)[C@@H](C)O)[C@@H](C)CC)[C@@H](C)CC)C(C)C)C(=O)N[C@@H](C)C(=O)NCC(=O)NCC(=O)N1CCC[C@H]1C(=O)N[C@@H](CO)C(=O)N[C@@H](CO)C(=O)NCC(=O)N[C@@H](C)C(=O)N1CCC[C@H]1C(=O)N1CCC[C@H]1C(=O)N1CCC[C@H]1C(=O)N[C@@H](CO)C(N)=O` [CT-388] ({Isobutyryl(2-(3-CN-5-F-Ph))-βAla}-EGTFTSDYSI[Aib]LDKIAQK([AEEA-AEEA-γGlu-C20 diacid])AFVQWLIAGGPSSGAPPPS-NH2)?
Answer: tolerated dosing exceeds the pharmacologically active dose ([1]; 26-weeks): 100 fold; tolerability, chronic toxicology ([1]; repeat dosing over 26-weeks): well tolerated; tolerated dosing exceeds the pharmacologically active dose ([2]; 39-weeks): 100 fold; tolerability, chronic toxicology ([2]; repeat dosing over 39-weeks): well tolerated; AUC(0-inf) [3, 4]: 12900 ± 1090 ng·h/mL; CL/F [3, 4]: 0.65 mL/min; Cmax [3, 4]: 52.4 ± 10 ng/mL; MRT last [3, 4]: 128 ± 8.2 h; Vd/F [3, 4]: 5.8 ± 0.7 L; half-life ([3]; Cohort 1, single SC dose 0.5 mg, range of minimum to maximum, read-out: t1/2 range): 3.83 to 7.11 days; AUC(0-inf) [3, 5]: 47400 ± 10600 ng·h/mL; CL/F [3, 5]: 0.733 mL/min; Cmax [3, 5]: 216 ± 51.4 ng/mL; MRT last [3, 5]: 122 ± 5.6 h; Vd/F [3, 5]: 7.7 ± 1.8 L; half-life ([3]; Cohort 2, single SC dose 2 mg, range of minimum to maximum, read-out: t1/2 range): 4.52 to 5.92 days; CL/F ([3]; Cohort 3, single SC dose 5 mg, mean): 0.64 mL/min; AUC(0-inf) [3, 6]: 140000 ± 41700 ng·h/mL; Cmax [3, 6]: 831 ± 263 ng/mL; MRT last [3, 6]: 114 ± 2.3 h; Vd/F [3, 6]: 6.8 ± 2.1 L; half-life ([3]; Cohort 3, single SC dose 5 mg, range of minimum to maximum, read-out: t1/2 range): 4.49 to 6.09 days; CL/F ([3]; Cohort 4, single SC dose 7.5 mg, mean): 0.547 mL/min; AUC(0-inf) [3, 7]: 235000 ± 39000 ng·h/mL; Cmax [3, 7]: 1160 ± 110 ng/mL; MRT last [3, 7]: 119 ± 5.3 h; Vd/F [3, 7]: 6.6 ± 1.3 L; half-life ([3]; Cohort 4, single SC dose 7.5 mg, range of minimum to maximum, read-out: t1/2 range): 4.88 to 6.3 days; AUC(0-inf) [3, 8]: 100000 ± 15000 ng·h/mL; CL/F [3, 8]: 0.99 mL/min; Cmax [3, 8]: 552 ± 80.1 ng/mL; MRT last [3, 8]: 122 ± 9.6 h; Vd/F [3, 8]: 11 ± 1.2 L; half-life ([3]; Cohort 5, single SC dose 6 mg, range of minimum to maximum, read-out: t1/2 range): 4.23 to 5.88 days; Tmax ([3]; SAD Cohorts 1-5, single SC dose, all except two individual cases): > 24 h; half-life ([3]; SAD Cohorts 1-5, single SC dose, read-out: t1/2 (median) (converted)): ~5 days
